Eight compounds from publication PMC7865754, “Design and Synthesis of π-Extended Resveratrol Analogues and In Vitro Antioxidant and Anti-Inflammatory Activity Evaluation” (Molecules, 2021) can be followed below.

The test system of series [1] is TNF-α gene expression in LPS-stimulated RAW 264.7 cells. The series is described as follows: Pro-inflammatory cytokine gene expression by endpoint RT-PCR, TNF-α. Format: cell-based, Murine. The conditions noted are these: 12.5~50 μM compound, 1 μg/mL LPS, 24 h. The method, then:
(§1) We have further investigated whether resveratrol and its analogues can reduce the inflammatory activity of macrophages. For this purpose, we examined the downregulation of pro-inflammatory cytokine gene expression of LPS-stimulated RAW 264.7 cells by potent inhibitors of NO production (1, 2, 5, and 7) (Figure 2). […] Treatment with 50 μM of analogue 2 was highly toxic to the cells.
(§2) Figure 2 Inhibitory effects of 1–7 on pro-inflammatory cytokine production of activated macrophage cells. RAW 264.7 cells were treated with 1 μg/mL LPS for 24 h in the presence of the indicated amounts (12.5~50 μM) of compounds. Gene expression levels were analyzed by endpoint reverse transcriptase-polymerase chain reaction and 1.5% agarose gel electrophoresis. GAPDH was used as a control.
(§3) Reverse transcriptase-polymerase chain reaction (RT-PCR)
(§4) Total RNA was isolated from Raw 264.7 cells using TRIzol reagent (Invitrogen, Waltham,
(§5) MA, USA). Relative levels of pro-inflammatory cytokine gene expression were tested by
(§6) 1.5% agarose gel electrophoresis after endpoint RT-PCR using GoScript™ Reverse
(§7) Transcriptase (Promega). The sequences of the sense and anti-sense primers used for
(§8) amplification are as follows. IL-1β, 5’-[…]-3’, 5’-
(§9) TNF-α, 5’-[…]-3’, 5’-GGCACCA
(§10) -3’. As a control, glyceraldehyde-3-phosphate dehydrogenase
(§11) (GAPDH) gene was also amplified using 5’-[…]-3’, 5’-
(§12) (1 picture or pasted object on this page, not shown here)

Series [2] concerns IL-6 gene expression in LPS-stimulated RAW 264.7 cells. The series is described as follows: Pro-inflammatory cytokine gene expression by endpoint RT-PCR, IL-6. Format: cell-based, Murine. The conditions noted are these: 12.5~50 μM compound, 1 μg/mL LPS, 24 h. The method, then:
as §1, §2, §3, §4, §5, §6, §7, §8, §9, §10, §11, §12

Series [3] has as its system IL-1β gene expression in LPS-stimulated RAW 264.7 cells. The series is described as follows: Pro-inflammatory cytokine gene expression by endpoint RT-PCR, IL-1β. Format: cell-based, Murine. The settings on record: 12.5~50 μM compound, 1 μg/mL LPS, 24 h. How it is done:
as §1, §2, §3, §4, §5, §6, §7, §8, §9, §10, §11, §12

For series [4], the system named is RAW 264.7 cells. The series is described as follows: Cell viability (MTT) assay. The class given is cell-based. The settings on record: for Cell Viability LD50: 24 h. From the text:
In the pathogenesis of inflammatory-related disorders, NO is recognized as one of the important mediators. […] Herein, to understand the anti-inflammatory properties of the resveratrol analogues, we studied their inhibitory effects against NO production in LPS-treated RAW 264.7 cells. Although it is not possible to measure NO quantitatively in a biological environment due to its rapid oxidation to NO2 (nitrite), short physiological half-life and presence of other free radicals, NO secretion activity in cells is indirectly determined by Griess assay counting its stable product NO2 levels. The inhibitory effects of 1–7 on NO production were collected in Table 2. […] Cell viability was not affected up to 50 μM except for 2. We also applied in vitro efficacy index (iEI) paradigm, the ratio of toxicity (LD50)/anti-inflammatory potency (ED50), to confirm that the anti-inflammatory activity is in the viable cells only. […] On the whole, compounds 5 and 7 have much-improved iEI values compared to any other compounds. […]
NO assay and cell viability test
Murine macrophage, Raw 264.7 cells were grown in Dulbecco’s modified Eagle’s medium (Gibco, Carlsbad , CA, USA), supplemented with 2 mM glutamine, antibiotics (100 U/mL of penicillin A and […] of streptomycin) and 10% FBS (Gibco). Cells were cultured in 96-well plates (5×10^4 cells), treated with serial dilutions of compound (3.125-100 µM) and stimulated with LPS (1 µg/mL) for 24 h at 37°C. After incubation, the supernatant was collected and the amount of nitrite was quantified using the Griess Reagent System ( Promega, Fitchburg, WI, USA ). For the correction of NO production, cell viability was measured using the CellTiter 96® Aqueous one solution cell proliferation assay kit (Promega). Cells were incubated with varying amounts of compound for 24 h, then MTS (tetrazolium salt) reagent was added to the plates. After 1h, the absorbance at 490 nm was read using a microplate reader (Thermo Scientific, Waltham, MA, USA).
(§13) Statistical analysis. Statistical significance was analyzed using the GraphPad Prism 5 software (GraphPad Software, San Diego, CA, USA). The comparison of two groups was performed by the unpaired t test. Values of *P less than 0.05, **P less than 0.01 and ***P less than 0.001 were considered statistically significant.

Series [5] can be described thus: In vitro ABTS radical scavenging assay. The settings on record: mean ± SEM, n = 3; 30 min incubation, absorbance at 734 nm. The method, then: ABTS (2,2′-azinobis (3-ethylbenzothiazoline-6-sulfonic acid) diammonium salt) assay was used for the antioxidant estimation. Though many methods are available, this appears to be the most popular because of its operational simplicity, short experimental time, and the employment of the inexpensive spectrophotometer.
Antioxidant activity was tested in the dark room by ABTS assay. UV-1800 (Shimadzu Corporation, Kyoto, Japan) was used to measure UV absorption. Hellma’s 104.600-QC Quartz cell was used as a UV cell. IC50 values were obtained using OriginPro 8.0 software (OriginLab Corporation, Northampton, MA, USA).
Antioxidant assay using ABTS
The radical cation was prepared by mixing an equal amount of 7mM ABTS (2,2’-azino-bis(3-ethylbenzothiazoline-6-sulphonic acid)) stock solution with 2.45 mM potassium persulfate stock solution. This mixture was stored at 0 °C for 12 hours under darkness. The above ABTS […]
Then these solutions were diluted with methanol to 500 µM, 250 µM, 125 µM, 62.5 µM, […]
tubes, 0.9 mL of the ABTS solution and 0.1 mL of the compound solution were mixed under darkness. After 30 min of incubation, the UV absorption at 734 nm was measured. Control was used the mixture of 0.9 mL ABTS and 0.1 mL methanol. […]
as §13

The subject of series [6] is NO production in LPS-treated RAW 264.7 cells. The series is described as follows: Inhibition of NO production (Griess assay, nitrite) in LPS-treated RAW 264.7 cells. The class given is cell-based, Murine. The conditions noted are these: LPS 1 μg/mL, 24 h, NO2 released into culture media, mean ± SEM, n = 3. From the text: In the pathogenesis of inflammatory-related disorders, NO is recognized as one of the important mediators. […] Herein, to understand the anti-inflammatory properties of the resveratrol analogues, we studied their inhibitory effects against NO production in LPS-treated RAW 264.7 cells. Although it is not possible to measure NO quantitatively in a biological environment due to its rapid oxidation to NO2 (nitrite), short physiological half-life and presence of other free radicals, NO secretion activity in cells is indirectly determined by Griess assay counting its stable product NO2 levels. The inhibitory effects of 1–7 on NO production were collected in Table 2. […] Cell viability was not affected up to 50 μM except for 2. […]
Anti-inflammatory activity was measured as the effect of compounds on inhibiting NO production versus cell viability. […]
Murine macrophage, Raw 264.7 cells were grown in Dulbecco’s modified Eagle’s medium (Gibco, Carlsbad , CA, USA), supplemented with 2 mM glutamine, antibiotics (100 U/mL of penicillin A and […] of streptomycin) and 10% FBS (Gibco). […] After incubation, the supernatant was collected and the amount of nitrite was quantified using the Griess Reagent System ( Promega, Fitchburg, WI, USA ). For the correction of NO production, cell viability was measured using the CellTiter 96® Aqueous one solution cell proliferation assay kit (Promega). […]

Setting [7] is: RAW 264.7 cells, mean ± SEM, n = 3.

“And” between values parts separate entries of the source, which are not always exact repeats. Identical values can stand only once.

By IC50 is commonly meant the concentration needed to halve the response being measured. A high value points to a need for much substance.

Take `Oc1ccc(/C=C/c2cc(O)cc(O)c2)cc1` [Compound 1, 3,5,4′-trihydroxy-trans-stilbene, reference compound]: the “Level of TNF-α gene expression” value in series [1] is recorded as “did not change”. Besides, the “Level of IL-6 gene expression” value in series [2] was “significantly reduced”. The “Level of IL-1β gene expression” value in series [3] is “significantly reduced”. In addition, the “Cell Viability LD50” value in series [4] (mouse) turned out to be 81.08 ± 9.258 µM.
Regarding `O=C1O[C@H]([C@@H](O)CO)C(O)=C1O` [Ascorbic acid, reference compound], the IC50 in series [5] amounted to 19.8 ± 0.934 µM.
Take `Oc1cc(O)cc(/C=C/c2ccc3cc(O)ccc3n2)c1` [Compound 4]: the “Cell Viability LD50” value in series [4] (setting [7]) amounted to 123.47 ± 6.388 µM. This compound had an IC50 in series [5] of 3.61 ± 0.253 µM.
For `Oc1cc(O)cc(/C=C/c2cnc3cc(O)ccc3c2)c1` [Compound 3], in that order: 167.12 ± 13.652 µM and 3.57 ± 0.496 µM.
Turning to `Oc1cc(O)cc(/C=C/c2ncc3cc(O)ccc3n2)c1` [Compound 7], the “Level of TNF-α gene expression” value in series [1] was “did not change”. Also, in series [6], the “NO/MTT Assay ED50” value was 21.67 µM and 21.67 ± 1.101 µM. The “Level of IL-6 gene expression” value in series [2] is listed as “significantly reduced”. In series [3], the “Level of IL-1β gene expression” value is given as “significantly reduced”. For the same compound, in series [4] (setting [7]), the “Cell Viability LD50” value amounted to 92.58 ± 8.745 µM. Moreover, in series [5], half-maximal inhibition (IC50) was put at 3.54 ± 0.714 µM.
On to `Oc1cc(O)cc(/C=C/c2cc3ccc(O)cc3cn2)c1` [Compound 5], for which the “Level of TNF-α gene expression” value in series [1] is “did not change”. In series [6], the “NO/MTT Assay ED50” value was 13.08 µM and 13.08 ± 0.690 µM. Further, the “Level of IL-6 gene expression” value in series [2] is recorded as “significantly reduced”. The “Level of IL-1β gene expression” value in series [3] is “significantly reduced”. Besides, the “Cell Viability LD50” value in series [4] (setting [7]) amounted to 63.30 ± 1.139 µM. In series [5], this compound showed an IC50 of 2.81 ± 0.034 µM.
`Oc1cc(O)cc(/C=C/c2ccc3cc(O)ccc3c2)c1` [Compound 2]: in series [1], the “Level of TNF-α gene expression” value was “did not change”. For the same compound, the “Level of IL-6 gene expression” value in series [2] was “significantly reduced”. Also, the “Level of IL-1β gene expression” value in series [3] was “significantly reduced”. Also, in series [4] (50 μM, LPS-stimulated RAW 264.7 cells, seen in the RT-PCR experiment (RNA degraded, no PCR amplification)), the “Toxicity to the cells” value is on record as “highly toxic”. In series [4] (setting [7]), the “Cell Viability LD50” value was determined as 28.82 ± 0.767 µM. In series [5], this compound had an IC50 of 3.14 ± 0.445 µM.
Turning to `Oc1cc(O)cc(/C=C/c2cnc3cc(O)ccc3n2)c1` [Compound 6], the “Cell Viability LD50” value in series [4] (setting [7]) stood at 120.46 ± 4.237 µM. In addition, the IC50 in series [5] was found to be 3.1 ± 0.953 µM.
